Measurements taken from patent US7087623B2, “Thiazole and other heterocyclic ligands for mammalian dopamine, muscarinic and serotonin receptors and transporters, and methods of use thereof” (Sepracor Inc., priority 2001, dated 2006).
Like-named read-outs stand apart in the source and are kept apart here.

Assays:
[1] = target: T1, human serotonin 5-HT2B receptor (Homo sapiens, UniProt P41595); test: Radioligand binding assay, human 5-HT2B receptors ([3H]LSD)
T1 construct: expressed in transfected cells; host or cells: CHO-K1
Outline: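 Membranes from CHO-K1 cells stably expressing human 5-HT2B, in modified Tris-HCl pH 7.4, bound with [3H]LSD. Non-specific binding defined with 10 μM serotonin; specific binding counted after filtration and three washes.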

[2] = target: T2, human dopamine transporter (Homo sapiens, UniProt Q01959); test: Binding to human dopamine transporter ([125I]RTI-55)
T2 construct: expressed in transfected cells; host or cells: CHO-K1
Experimental: CHO-K1 cell membranes stably transfected with a plasmid encoding the human dopamine transporter were prepared in modified Tris-HCl pH 7.4 buffer using standard techniques. […] Non-specific binding was estimated in the presence of 10 μM nomifensine. […] Trends. […]

[3] = target: T3, human muscarinic M1 receptor (Homo sapiens, UniProt P11229); test: Binding to human muscarinic M1 receptors ([3H]N-methylscopolamine)
T3 construct: expressed in transfected cells; host or cells: BSR-M1H
T3 sequence (P11229 1-460): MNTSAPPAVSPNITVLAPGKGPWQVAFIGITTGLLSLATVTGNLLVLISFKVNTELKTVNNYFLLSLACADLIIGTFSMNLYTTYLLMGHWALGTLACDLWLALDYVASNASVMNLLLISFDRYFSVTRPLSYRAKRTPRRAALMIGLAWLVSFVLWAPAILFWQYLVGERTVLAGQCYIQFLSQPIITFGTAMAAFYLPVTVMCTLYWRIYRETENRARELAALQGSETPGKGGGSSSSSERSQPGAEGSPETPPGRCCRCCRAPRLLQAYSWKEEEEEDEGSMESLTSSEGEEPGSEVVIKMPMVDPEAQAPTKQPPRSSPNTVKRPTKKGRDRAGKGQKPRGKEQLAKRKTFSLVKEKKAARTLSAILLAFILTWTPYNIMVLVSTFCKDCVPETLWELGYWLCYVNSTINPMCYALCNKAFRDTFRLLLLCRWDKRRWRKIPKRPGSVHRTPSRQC
Experimental: This assay measures binding of [^3H]N-methylscopolamine to human muscarinic M1 receptors. BSR-M1H cells transfected with a plasmid encoding the human muscarinic M1 receptor were used to prepare membranes in modified Tris-HCl pH 7.4 buffer using standard techniques. A 25 μg aliquot of membrane was incubated with 0.29 nM [^3H]N-methylscopolamine for 60 minutes at 25° C. Non-specific binding was estimated in the presence of 1 μM atropine. Membranes were filtered and washed 3 times and the filters were counted to determine [^3H]N-methylscopolamine specifically bound. See Buckley, N. J., Bonner, T. I., Buckley, C. M. and Brann, M. R. Antagonist binding properties of five cloned muscarinic receptors expressed in CHO-K1 cells. Mol. Pharmacol. 35: 469–476, 1989; Luthin, G. R. and Wolfe, B. B. Comparison of [^3H]pirenzepine and [^3H]quinuclidinylbenzilate binding to muscarine cholinergic receptors in rat brain. J. Pharmacol. Exp. Ther. 228: 648–665, 1984; and Watson, M., Yamamura, H. I. and Roeske, W. R. A unique regulatory profile and regional distribution of [^3H]pirenzepine binding in the rat provide evidence for distinct M1 and M2 muscarinic receptor subtypes. Life. Sci. 32: 3001–3011, 1983.
(§1) The human 5-HT2a and 5-HT2b screens were conducted according to Bonhaus, D. W. et al. Br. J. Pharmacol. 1995, 115, 622. The human […], W. A. et al. J. Neurochem. 1997, 69, 1449. The human 5-HT6 screen was conducted according to Monsama, F. J. et al. Mol. Pharmacol. 1993, 43, 320. The assay to human D3 receptors was conducted according to Sokoloff, P. et al. Nature 1990, 347;146. The human dopamine transporter assay was conducted according to Gu, H. et. al. J. Biol. Chem. 1994, 269 (10);7124; and Giros, B. et al. Trends. Pharmacol. Sci. 1993, 14: 43. The human muscarinic M1–M4 screens were conducted according to Buckley N. J. et al. Mol. Pharmacol. 1989, 35:469.
(§2) The human dopamine transporter assay was conducted according to Gu, H. et. al. J. Biol. Chem. 1994, 269 (10);7124 and Giros, B. et al. Trends. Pharmacol. Sci. 1993, 14: 43. The human muscarinic M1–M4 screens were conducted according to Buckley N. J. et al. Mol. Pharmacol. 199, 35:469

[4] = target: T4, human muscarinic M2 receptor (Homo sapiens, UniProt P08172); test: Binding to human muscarinic M2 receptors ([3H]N-methylscopolamine)
T4 construct: expressed in transfected cells; host or cells: BSR-M2H
T4 sequence (P08172 1-466): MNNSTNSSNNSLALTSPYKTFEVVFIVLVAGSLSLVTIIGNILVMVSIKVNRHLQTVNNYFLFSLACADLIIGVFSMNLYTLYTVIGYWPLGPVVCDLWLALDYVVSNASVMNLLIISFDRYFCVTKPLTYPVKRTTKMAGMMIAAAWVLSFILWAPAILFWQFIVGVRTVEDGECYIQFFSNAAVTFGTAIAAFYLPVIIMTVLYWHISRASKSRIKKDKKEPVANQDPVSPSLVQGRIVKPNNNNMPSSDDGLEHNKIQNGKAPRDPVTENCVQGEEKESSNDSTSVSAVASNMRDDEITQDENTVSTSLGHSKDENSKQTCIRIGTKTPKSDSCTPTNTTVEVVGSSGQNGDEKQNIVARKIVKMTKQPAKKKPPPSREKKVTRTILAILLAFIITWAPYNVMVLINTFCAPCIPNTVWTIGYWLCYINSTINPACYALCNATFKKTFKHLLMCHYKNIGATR
Experimental: This assay measures binding of [^3H]N-methylscopolamine to human muscarinic M2 receptors. BSR-M2H cells transfected with a plasmid encoding the human muscarinic M2 receptor were used to prepare membranes in modified Tris-HCl pH 7.4 buffer using standard techniques. A 5 μg aliquot of membrane was incubated with 0.29 nM [^3H]N-methylscopolamine for 60 minutes at 25° C. Non-specific binding was estimated in the presence of 1 μM atropine. Membranes were filtered and washed 3 times and the filters were counted to determine [^3H]N-methylscopolamine specifically bound. See Buckley, N. J., Bonner, T. I., Buckley, C. M. and Brann, M. R. Antagonist binding properties of five cloned muscarinic receptors expressed in CHO-K1 cells. Mol. Pharmacol. 35: 469–476, 1989; and Delmendo, R. E., Michel, A. D. and Whiting, R. L. Affinity of muscarinic receptor antagonists for the three putative muscarinic binding sites. Br. J. Pharmacol. 96: 457–464, 1989.
as §1, §2

[5] = human 5-HT2b, Example 16 table, read-out: IC50 (nM) 5-HT2b
[6] = human, Example 101 table, read-out: IC50 (nM) DAT
[7] = human, Example 101 table, read-out: IC50 (nM) M1
[8] = human, Example 101 table, read-out: IC50 (nM) M2
[9] = human, Example 100 table, read-out: IC50 (nM) 5-HT2B
[10] = human, Example 100 table, read-out: IC50 (nM) DAT
[11] = human, Example 100 table, read-out: IC50 (nM) M1
[12] = human, Example 100 table, read-out: IC50 (nM) M2

T1 sequence (P41595 whole entry): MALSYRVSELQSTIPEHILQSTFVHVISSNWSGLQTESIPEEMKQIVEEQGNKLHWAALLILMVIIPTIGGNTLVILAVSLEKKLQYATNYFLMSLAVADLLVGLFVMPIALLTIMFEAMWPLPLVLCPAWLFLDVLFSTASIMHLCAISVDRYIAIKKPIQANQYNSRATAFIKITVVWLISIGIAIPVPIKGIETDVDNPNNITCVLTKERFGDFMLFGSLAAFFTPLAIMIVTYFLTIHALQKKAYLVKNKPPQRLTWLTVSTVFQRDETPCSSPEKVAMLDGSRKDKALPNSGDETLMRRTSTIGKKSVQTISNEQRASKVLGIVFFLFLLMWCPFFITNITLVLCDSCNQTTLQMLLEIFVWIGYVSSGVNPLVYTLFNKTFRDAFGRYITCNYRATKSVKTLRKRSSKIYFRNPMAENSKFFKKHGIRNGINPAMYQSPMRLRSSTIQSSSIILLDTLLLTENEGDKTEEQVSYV
T2 sequence (Q01959 whole entry): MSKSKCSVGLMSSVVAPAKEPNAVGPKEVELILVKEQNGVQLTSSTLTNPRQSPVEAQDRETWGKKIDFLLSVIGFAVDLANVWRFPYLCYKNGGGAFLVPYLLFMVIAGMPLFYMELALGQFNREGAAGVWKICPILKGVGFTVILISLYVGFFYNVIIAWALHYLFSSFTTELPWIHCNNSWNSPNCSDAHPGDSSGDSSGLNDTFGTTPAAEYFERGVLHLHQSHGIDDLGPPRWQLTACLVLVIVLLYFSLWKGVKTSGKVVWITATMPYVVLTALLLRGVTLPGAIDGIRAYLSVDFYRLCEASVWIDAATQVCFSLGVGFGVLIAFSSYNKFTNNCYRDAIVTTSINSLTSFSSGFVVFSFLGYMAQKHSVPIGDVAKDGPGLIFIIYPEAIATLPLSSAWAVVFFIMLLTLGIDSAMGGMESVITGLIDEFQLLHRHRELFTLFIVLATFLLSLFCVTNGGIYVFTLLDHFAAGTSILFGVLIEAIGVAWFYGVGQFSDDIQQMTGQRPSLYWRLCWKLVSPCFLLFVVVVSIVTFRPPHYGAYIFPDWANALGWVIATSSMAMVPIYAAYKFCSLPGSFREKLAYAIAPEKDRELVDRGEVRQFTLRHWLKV

Question: Which results are given for `CN1CCN(c2nc(C3(c4cccc(Cl)c4)CCOCC3)cs2)CC1` [Compound 63]?
Answer: IC50 [1, 5]: < 1000 nM; IC50 [2, 6]: > 1000 nM; IC50 [3, 7]: > 1000 nM; IC50 [4, 8]: > 1000 nM

Question: Which results are given for `CN1CCN(c2nc(C3(c4ccccc4)CCOCC3)cs2)CC1` [Compound 59]?
Answer: IC50 [1]: > 1000 nM; IC50 [2]: > 1000 nM; IC50 [3]: > 1000 nM; IC50 [4]: > 1000 nM

Question: Which results are given for `CN1CCN(c2nc(C3(c4ccccc4F)CCCC3)cs2)CC1` [Compound 93]?
Answer: IC50 [1, 5]: < 1000 nM; IC50 [2, 6]: > 1000 nM; IC50 [3, 7]: < 500 nM; IC50 [4, 8]: < 500 nM

Question: What does the source list for `CN1CCN(c2nc(C3(c4csc5ccc(Cl)cc45)CCOCC3)cs2)CC1` [Compound 36]?
Answer: IC50 [1, 5]: < 1000 nM; IC50 [2, 6]: > 1000 nM; IC50 [3, 7]: > 1000 nM; IC50 [4, 8]: > 1000 nM

Question: For `CN1CCN(c2nc(C3(c4ccccc4F)CCCCC3)cs2)CC1` [Compound 83], which IC50 [1, 5] is on record?
Answer: < 100 nM

Question: What about the IC50 [2, 6] of the same compound?
Answer: > 1000 nM

Question: What about the IC50 [3, 7] of the same compound?
Answer: < 500 nM

Question: What about the IC50 [4, 8] of the same compound?
Answer: > 1000 nM

Question: Which IC50 [1, 9] does the source give for `CN1CCCC1CCNc1nc(C2(c3ccccc3F)CCCCC2)cs1` (single isomer, unassigned) [Compound 130, {4-[1-(2-fluorophenyl)-cyclohexyl]-thiazol-2-yl}-[2-(1-methyl-pyrrolidin-2-yl)-ethyl]-amine] here?
Answer: < 100 nM

Question: What about the IC50 [2, 10] of the same compound?
Answer: > 1000 nM

Question: What about the IC50 [3, 11] of the same compound?
Answer: > 1000 nM

Question: What about the IC50 [4, 12] of the same compound?
Answer: > 1000 nM

Question: Which IC50 [2, 10] does the source give for `CN1CCN(c2nc(C3(c4ccccc4F)CCOCC3)cs2)CC1` [Compound 112] here?
Answer: > 1000 nM

Question: What about the IC50 [3, 11] of the same compound?
Answer: < 1000 nM

Question: What about the IC50 [4, 12] of the same compound?
Answer: > 1000 nM

Question: Which IC50 [1, 9] does the source give for `CN1CCCC1CCNc1nc(C2(c3ccccc3F)CCCCC2)cs1` (racemic) [Compound 128, {4-[1-(2-fluorophenyl)-cyclohexyl]-thiazol-2-yl}-[2-(1-methyl-pyrrolidin-2-yl)-ethyl]-amine] here?
Answer: < 1000 nM

Question: And the IC50 [2, 10]?
Answer: > 1000 nM

Question: What about the IC50 [3, 11] of the same compound?
Answer: < 1000 nM

Question: What about the IC50 [4, 12] of the same compound?
Answer: > 1000 nM

Question: How did the IC50 [1, 5] turn out when `Clc1ccc(C2(c3csc(N4CCNCC4)n3)CCOCC2)cc1` [Compound 37] was run?
Answer: > 1000 nM

Question: What about the IC50 [2, 6] of the same compound?
Answer: > 1000 nM

Question: What about the IC50 [3, 7] of the same compound?
Answer: < 500 nM

Question: And the IC50 [4, 8]?
Answer: > 1000 nM
